According to ChEMBL document CHEMBL5329207, “Design, synthesis, and biological evaluation of diaminopyrimidine derivatives as novel focal adhesion kinase inhibitors” (RSC Med Chem, 2023):
pIC50: −log10 of the molar value.

Key:
MDA-MB-231 = test: cells; details: Homo sapiens, MDA-MB-231, 72 h
Description: Antiproliferative activity against human MDA-MB-231 cells assessed as inhibition of cell proliferation incubated for 72 hrs by MTT assay

A549 = test: cells; details: Homo sapiens, A549, 72 h
Description: Antiproliferative activity against human A549 cells assessed as inhibition of cell proliferation incubated for 72 hrs by MTT assay

Focal adhesion kinase 1 [1] = biological target: T1, Focal adhesion kinase 1 (Homo sapiens, UniProt Q05397); test: Inhibition of FAK (unknown origin) incubated for 50 mins in presence of substrate/ATP by HTRF assay
T1 sequence (Q05397 whole entry, the tested form may be a part): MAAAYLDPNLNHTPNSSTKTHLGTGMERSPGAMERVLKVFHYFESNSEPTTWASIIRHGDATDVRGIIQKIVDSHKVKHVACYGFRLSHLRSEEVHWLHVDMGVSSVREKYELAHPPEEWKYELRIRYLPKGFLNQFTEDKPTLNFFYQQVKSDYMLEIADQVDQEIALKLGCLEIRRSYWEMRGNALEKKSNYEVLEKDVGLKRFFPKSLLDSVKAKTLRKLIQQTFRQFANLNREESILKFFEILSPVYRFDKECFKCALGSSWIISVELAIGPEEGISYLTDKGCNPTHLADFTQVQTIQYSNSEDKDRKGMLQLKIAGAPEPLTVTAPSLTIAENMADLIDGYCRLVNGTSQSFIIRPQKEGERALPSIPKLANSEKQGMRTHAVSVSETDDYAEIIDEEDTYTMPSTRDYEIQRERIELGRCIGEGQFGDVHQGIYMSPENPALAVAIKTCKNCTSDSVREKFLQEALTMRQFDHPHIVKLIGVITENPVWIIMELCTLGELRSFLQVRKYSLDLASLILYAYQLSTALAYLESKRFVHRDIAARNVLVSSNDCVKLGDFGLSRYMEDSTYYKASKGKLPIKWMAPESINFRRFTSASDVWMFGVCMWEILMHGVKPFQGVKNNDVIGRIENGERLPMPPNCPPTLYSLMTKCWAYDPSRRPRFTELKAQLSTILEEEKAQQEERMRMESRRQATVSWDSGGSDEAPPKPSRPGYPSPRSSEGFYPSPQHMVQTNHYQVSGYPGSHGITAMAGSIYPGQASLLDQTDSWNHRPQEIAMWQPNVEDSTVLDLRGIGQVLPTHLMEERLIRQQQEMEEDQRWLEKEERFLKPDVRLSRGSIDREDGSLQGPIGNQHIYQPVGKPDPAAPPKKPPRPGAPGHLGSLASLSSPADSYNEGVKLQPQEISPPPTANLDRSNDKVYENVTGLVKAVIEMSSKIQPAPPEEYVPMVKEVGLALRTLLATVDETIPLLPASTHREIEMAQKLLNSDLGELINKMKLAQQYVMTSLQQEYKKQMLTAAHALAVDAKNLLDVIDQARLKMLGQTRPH

Focal adhesion kinase 1 [2] = biological target: T1, Focal adhesion kinase 1; test: Inhibition of GST-fused FAK (411 to 686 residues)(unknown origin) expressed in baculovirus expression system using poly(Glu:Tyr) as substrate incubated for 5 mins in presence of ATP by K-LISA screening assay

SMILES | pIC50 (MDA-MB-231) | pIC50 (A549) | pIC50 (Focal adhesion kinase 1 [1]) | pIC50 (Focal adhesion kinase 1 [2])
CNC(=O)c1ccccc1Nc1nc(Nc2ccc(N3CCOCC3)cc2OC)ncc1Cl | 5.99 | 5.37 | – | –
Cc1cc(C(=O)NC2CCNCC2)ccc1Nc1ncc(Cl)c(Nc2ccccc2P(C)(C)=O)n1 | – | – | 7.54 | –
CNC(=O)c1ccccc1Nc1nc(Nc2ccc(N3CCOCC3)cc2OC)ncc1C(F)(F)F | – | – | – | 8.82
CNC1CCN(C(=O)c2ccc(Nc3ncc(Cl)c(Nc4ccccc4P(C)(C)=O)n3)cc2)CC1 | – | – | 6.38 | –
CN(C(=O)c1ccc(Nc2ncc(Cl)c(Nc3ccccc3P(C)(C)=O)n2)cc1)C1CCCNC1 (centres undefined) | – | – | 6.79 | –
CN(C(=O)c1ccc(Nc2ncc(Cl)c(Nc3ccccc3P(C)(C)=O)n2)cc1)C1CCNCC1 | – | – | 6.92 | –
CP(C)(=O)c1ccccc1Nc1nc(Nc2ccc(C(=O)N3CCC[C@@H](N)C3)cc2)ncc1Cl | – | – | 6.62 | –
Cc1cc(C(=O)NC2CCC(O)CC2)ccc1Nc1ncc(Cl)c(Nc2ccccc2P(C)(C)=O)n1 (centres undefined) | – | – | 7.50 | –
CP(C)(=O)c1ccccc1Nc1nc(Nc2ccc(C(=O)N3CCC(N4CCOCC4)CC3)cc2)ncc1Cl | – | – | 6.83 | –
CP(C)(=O)c1ccccc1Nc1nc(Nc2ccc(C(=O)N3CCOCC3)cc2)ncc1Cl | – | – | 6.45 | –
CP(C)(=O)c1ccccc1Nc1nc(Nc2ccc(C(=O)N3CCNCC3)cc2)ncc1Cl | – | – | 6.48 | –
CP(C)(=O)c1ccccc1Nc1nc(Nc2ccc(C(=O)NCC3CCNCC3)cc2)ncc1Cl | – | – | 7.71 | –
CP(C)(=O)c1ccccc1Nc1nc(Nc2ccc(C(=O)N3CCC[C@H](N)C3)cc2)ncc1Cl | – | – | 6.44 | –
Cc1cc(Nc2ncc(Cl)c(Nc3ccccc3P(C)(C)=O)n2)ccc1C(=O)NC1CCNCC1 | – | – | 7.50 | –
CP(C)(=O)c1ccccc1Nc1nc(Nc2ccc(C(=O)NC3CCNCC3)cc2F)ncc1Cl | – | – | 7.56 | –

More lines, now with the values ahead:

pIC50 (MDA-MB-231) | pIC50 (A549) | pIC50 (Focal adhesion kinase 1 [1]) | pIC50 (Focal adhesion kinase 1 [2]) | SMILES
5.60 | 5.85 | 7.80 | – | COc1cc(C(=O)NC2CCC(O)CC2)ccc1Nc1ncc(Cl)c(Nc2ccccc2P(C)(C)=O)n1 (centres undefined)
6.07 | 6.96 | 8.02 | – | CP(C)(=O)c1ccccc1Nc1nc(Nc2ccc(C(=O)NC3CCC(O)CC3)cc2)ncc1Cl (centres undefined)
5.79 | 5.64 | 8.06 | – | CP(C)(=O)c1ccccc1Nc1nc(Nc2ccc(C(=O)NC3CCNCC3)cc2)ncc1Cl
5.67 | 5.65 | 7.78 | – | CP(C)(=O)c1ccccc1Nc1nc(Nc2ccc(C(=O)N[C@@H]3CCNC3)cc2)ncc1Cl
– | – | 7.76 | – | CP(C)(=O)c1ccccc1Nc1nc(Nc2ccc(C(=O)NC3CCC(O)CC3)cc2F)ncc1Cl (centres undefined)
5.12 | 6.28 | 7.99 | – | Cc1cc(Nc2ncc(Cl)c(Nc3ccccc3P(C)(C)=O)n2)ccc1C(=O)NC1CCC(O)CC1 (centres undefined)
5.87 | 5.85 | 8.17 | – | COc1cc(C(=O)NC2CCNCC2)ccc1Nc1ncc(Cl)c(Nc2ccccc2P(C)(C)=O)n1
5.06 | 5.58 | 7.80 | – | CP(C)(=O)c1ccccc1Nc1nc(Nc2ccc(C(=O)NC3CCNCC3)c(F)c2)ncc1Cl
5.61 | 6.41 | 7.82 | – | CP(C)(=O)c1ccccc1Nc1nc(Nc2ccc(C(=O)NC3CCC(O)CC3)c(F)c2)ncc1Cl (centres undefined)
5.63 | 5.66 | 7.84 | – | CP(C)(=O)c1ccccc1Nc1nc(Nc2ccc(C(=O)N[C@H]3CCNC3)cc2)ncc1Cl
